In the Kinase Knowledgebase extract (Sharma et al. 2016):

Target: CDK2 (UniProt P24941)
Assay: Enzyme Assay

Row | SMILES | Ki [nM]
1 | O=C(CCc1ccccc1)Nc1cc(-n2cnc(Nc3ccccc3)n2)ccn1 | 500 to 1000
2 | CC(=O)N1[C@H](C)CN(c2cc(-n3cnc(Nc4ccc(NC(=O)C(F)(F)F)cc4)n3)ccn2)C[C@@H]1C | < 500
3 | CC(=O)N1[C@H](C)CN(c2cc(-n3cnc(Nc4ccc(NC(=O)OCC(C)C)cc4)n3)ccn2)C[C@@H]1C | 500 to 1000
4 | COC(=O)Nc1ccc(Nc2ncn(-c3ccnc(N4C[C@@H](C)N(C(C)=O)[C@@H](C)C4)c3)n2)cc1 | < 500
5 | CC(=O)N1[C@H](C)CN(c2cc(-n3cnc(Nc4ccc(N5CCOCC5)cc4)n3)ccn2)C[C@@H]1C | < 500
6 | CC(=O)N1[C@H](C)CN(c2cc(-n3cnc(Nc4ccc(NC(=O)OCC(C)(C)C)cc4)n3)ccn2)C[C@@H]1C | 500 to 1000
7 | CCOC(=O)Nc1ccc(Nc2ncn(-c3ccnc(N4C[C@@H](C)N(C(C)=O)[C@@H](C)C4)c3)n2)cc1 | < 500
8 | CC(=O)N1[C@H](C)CN(c2cc(-n3cnc(Nc4ccccc4)n3)ccn2)C[C@@H]1C | < 500
9 | COc1cc(Nc2ncn(-c3ccc(C#N)cc3)n2)cc(OC)c1OC | 500 to 1000
10 | CCCOC(=O)Nc1ccc(Nc2ncn(-c3ccnc(N4C[C@@H](C)N(C(C)=O)[C@@H](C)C4)c3)n2)cc1 | < 500
11 | O=c1[nH]c2ccccc2n1C1CCN(c2cc(-n3cnc(Nc4ccccc4)n3)ccn2)CC1 | > 1000
12 | CCN(CC)CCNc1cc(-n2cnc(Nc3ccccc3)n2)ccn1 | > 1000
13 | CC(=O)N1[C@H](C)CN(c2cc(-n3cnc(Nc4ccc(NC(=O)c5cccs5)cc4)n3)ccn2)C[C@@H]1C | < 500
14 | O=C(Cc1ccccc1)Nc1cc(-n2cnc(Nc3ccccc3)n2)ccn1 | < 500
15 | CC(=O)N1[C@H](C)CN(c2cc(-n3cnc(Nc4ccc(N5CCN(C(=O)OC(C)(C)C)CC5)cc4)n3)ccn2)C[C@@H]1C | < 500
16 | CN(Cc1ccccc1)c1cc(-n2cnc(Nc3ccccc3)n2)ccn1 | < 500
17 | CC(=O)N1CCCN(c2cc(-n3cnc(Nc4ccccc4)n3)ncn2)CC1 | > 1000
18 | CC(=O)N1[C@H](C)CN(c2cc(-n3cnc(Nc4ccc(NC(=O)NC(C)(C)C)cc4)n3)ccn2)C[C@@H]1C | 500 to 1000
19 | CC(C)CC(=O)N1CCCN(c2cc(-n3cnc(Nc4ccccc4)n3)ccn2)CC1 | > 1000
20 | OC[C@H]1CCCN(c2cc(-n3cnc(Nc4ccccc4)n3)ccn2)C1 | < 500
21 | O=C(CC1CCCC1)Nc1cc(-n2cnc(Nc3ccccc3)n2)ccn1 | > 1000
22 | CCCC(=O)N1CCCN(c2cc(-n3cnc(Nc4ccccc4)n3)ccn2)CC1 | > 1000

Row | SMILES | Ki [nM]
23 | COCC(=O)N1CCCN(c2cc(-n3cnc(Nc4ccccc4)n3)ccn2)CC1 | > 1000
24 | O=C(C1CCCO1)N1CCN(c2cc(-n3cnc(Nc4ccccc4)n3)ccn2)CC1 (stereo not given) | > 1000
25 | CCOC(=O)c1ccc(Nc2ncn(-c3ccnc(N4CCCN(C(C)=O)CC4)c3)n2)cc1 | > 1000
26 | CC(C)(C)CC(=O)Nc1cc(-n2cnc(Nc3ccccc3)n2)ccn1 | > 1000
27 | CC(=O)N1[C@H](C)CN(c2cc(-n3cnc(Nc4ccc(N5CCN(S(=O)(=O)c6ccc(C)cc6)CC5)cc4)n3)ccn2)C[C@@H]1C | 500 to 1000
28 | CCCNC(=O)Nc1ccc(Nc2ncn(-c3ccnc(N4C[C@@H](C)N(C(C)=O)[C@@H](C)C4)c3)n2)cc1 | < 500
29 | CC(=O)N1[C@H](C)CN(c2cc(-n3cnc(Nc4ccc(NC(=O)NC(C)C)cc4)n3)ccn2)C[C@@H]1C | < 500
30 | CCOC(=O)c1ccc(Nc2ncn(-c3ccnc(N4C[C@@H](C)N(C(C)=O)[C@@H](C)C4)c3)n2)cc1 | 500 to 1000
31 | CC(=O)N1[C@H](C)CN(c2cc(-n3cnc(Nc4ccc(NC(=O)N(C)C)cc4)n3)ccn2)C[C@@H]1C | > 1000
32 | CCC(=O)N1CCCN(c2cc(-n3cnc(Nc4ccccc4)n3)ccn2)CC1 | > 1000
33 | N#CCC(=O)N1CCCN(c2cc(-n3cnc(Nc4ccccc4)n3)ccn2)CC1 | < 500
34 | CC(=O)N1[C@H](C)CN(c2cc(-n3cnc(Nc4ccccc4)n3)ncn2)C[C@@H]1C | > 1000
35 | CC(=O)N1[C@H](C)CN(c2cc(-n3cnc(Nc4ccc(NC(=O)c5ccco5)cc4)n3)ccn2)C[C@@H]1C | 500 to 1000
36 | CC(C)C(=O)N1CCCN(c2cc(-n3cnc(Nc4ccccc4)n3)ccn2)CC1 | > 1000
37 | C[C@@H]1CN(c2cc(-n3cnc(Nc4ccccc4)n3)ncn2)C[C@H](C)N1 | > 1000
38 | CC(=O)N1[C@H](C)CN(c2cc(-n3cnc(Nc4ccc(NC(=O)OC(C)C)cc4)n3)ccn2)C[C@@H]1C | 500 to 1000
39 | c1ccc(Nc2ncn(-c3ccnc(N4CCCCCCC4)c3)n2)cc1 | < 500
40 | CCNC(=O)Nc1ccc(Nc2ncn(-c3ccnc(N4C[C@@H](C)N(C(C)=O)[C@@H](C)C4)c3)n2)cc1 | < 500
41 | CC(=O)N1[C@H](C)CN(c2cc(-n3cnc(Nc4ccc(N)cc4)n3)ccn2)C[C@@H]1C | < 500
42 | CC(=O)N1CCCN(c2cc(-n3cnc(Nc4ccccc4)n3)ccn2)CC1 | 500 to 1000
43 | CN1C(C)(C)CC(Nc2cc(-n3cnc(Nc4ccccc4)n3)ccn2)CC1(C)C | 500 to 1000

Now from value to compound:

Row | Ki [nM] | SMILES
44 | > 1000 | c1ccc(-n2cnc(Nc3ccc4c(c3)OCCO4)n2)cc1
45 | < 500 | CC1CCCN1c1cc(-n2cnc(Nc3ccccc3)n2)ccn1 (stereo not given)
46 | < 500 | CCCN(CCO)c1cc(-n2cnc(Nc3ccccc3)n2)ccn1
47 | > 1000 | CN(C)CCCN(C)c1cc(-n2cnc(Nc3ccccc3)n2)ccn1
48 | < 500 | COCCN(C)c1cc(-n2cnc(Nc3ccccc3)n2)ccn1
49 | > 1000 | CC(C)Oc1cccc(Nc2ncn(-c3ccccc3)n2)c1
50 | < 500 | CCN(CCO)c1cc(-n2cnc(Nc3ccccc3)n2)ccn1
51 | > 1000 | c1ccc(-n2cnc(Nc3ccc(N4CCOCC4)nc3)n2)cc1
52 | < 500 | c1ccc(Nc2ncn(-c3ccnc(N4CCCCC4)c3)n2)cc1
53 | 500 to 1000 | O=C(Nc1cc(-n2cnc(Nc3ccccc3)n2)ccn1)C1CCCCC1
54 | < 500 | CN(Cc1cccnc1)c1cc(-n2cnc(Nc3ccccc3)n2)ccn1
55 | < 500 | CC(C)CCN(C)c1cc(-n2cnc(Nc3ccccc3)n2)ccn1
56 | > 1000 | CCOc1cccc(Nc2ncn(-c3ccccc3)n2)c1
57 | < 500 | CN(CCO)c1cc(-n2cnc(Nc3ccccc3)n2)ccn1
58 | 500 to 1000 | c1ccc(-n2cnc(Nc3ccnc(N4CCOCC4)c3)n2)cc1
59 | > 1000 | c1ccc(-n2cnc(Nc3ccnc(NCCN4CCOCC4)c3)n2)cc1
60 | > 1000 | CN1CCN(c2ccc(Nc3ncn(-c4ccccc4)n3)cn2)CC1
61 | < 500 | c1ccc(Nc2ncn(-c3ccnc(N4CCCCCC4)c3)n2)cc1
62 | < 500 | c1ccc(Nc2ncn(-c3ccnc(NC4CCCCC4)c3)n2)cc1
63 | > 1000 | COc1cc(Nc2ncn(-c3ccccc3)n2)cc(OC)c1OC
64 | > 1000 | c1ccc(-n2cnc(Nc3ccc(N4CCOCC4)cc3)n2)cc1
65 | > 1000 | CCOc1ccc(Nc2ncn(-c3ccccc3)n2)cc1
